From ChEMBL document CHEMBL6114979, “Discovery of 3-indolylbenzoquinone derivatives with therapeutic potential for breast cancer” (Bioorg Med Chem, 2025)
Values after ≈ are worked out from the molar mass of the structure shown. Active and inactive are the calls of the source. No cut-off for these calls is given here.

How the values were obtained:
[1] = Toxicity in female Balb/c mouse implanted with mouse 4T1 cells assessed as change in spleen at 25 to 35 mg/kg, ip administered once every 2 days for 14 days; assay type: organism-based; settings: in vivo, 48 h, dose 25-35 mg/kg, time 2 day
[2] = tested on: 4T1; assay: Antitumor activity against mouse 4T1 cells implanted in Balb/c mouse assessed as appearance of loosely arranged tumor cells at 35 mg/kg, ip administered once every 2 days for 14 days; assay type: functional, organism-based; settings: time 14.0 day
[3] = tested on: MDA-MB-231; assay: Antiproliferative activity against human MDA-MB-231 cells assessed as inhibition of cell proliferation incubated for 48 hrs by CCK-8 assay; assay type: functional, cell-based; settings: MDA-MB-231, 48 h
[4] = tested on: HepG2; assay: Antiproliferative activity against human HepG2 cells assessed as inhibition of cell proliferation incubated for 48 hrs by CCK-8 assay; assay type: functional, cell-based; settings: HepG2, 48 h
[5] = Solubility of compound in water; assay type: physicochemical
[6] = tested on: MDA-MB-231; assay: Induction of apoptosis in human MDA-MB-231 cells assessed as late apoptotic cells at 1 uM incubated for 24 hrs by Annexin-V/PI staining based flow cytometric analysis (reference value: 3.24%); assay type: functional
[7] = tested on: MDA-MB-231; assay: Induction of apoptosis in human MDA-MB-231 cells assessed as necrotic cells at 1 uM incubated for 24 hrs by Annexin-V/PI staining based flow cytometric analysis (reference value: 0.71%); assay type: functional
[8] = tested on: 4T1; assay: Antitumor activity against mouse 4T1 cells implanted in Balb/c mouse assessed as appearance of irregular necrotic foci at 25 mg/kg, ip administered once every 2 days for 14 days; assay type: functional, organism-based; settings: time 14.0 day
[9] = tested on: MDA-MB-231; assay: Induction of cell cycle arrest in human MDA-MB-231 cells assessed as accumulation of cells at G0/G1 phase at 1 uM incubated for 24 hrs by PI staining based flow cytometric analysis (reference value: 57.31%); assay type: functional
[10] = tested on: MDA-MB-231; assay: Induction of cell cycle arrest in human MDA-MB-231 cells assessed as accumulation of cells at G2/M phase at 1 uM incubated for 24 hrs by PI staining based flow cytometric analysis (reference value: 33.98%); assay type: functional
[11] = tested on: NIH3T3; assay: Cytotoxicity against mouse 3T3 cells; assay type: toxicity, cell-based
[12] = tested on: MDA-MB-231; assay: Induction of apoptosis in human MDA-MB-231 cells assessed as increase in green fluorescence at 1 uM incubated for 24 hrs in presence of doxorubicin by fluorescence microscopic analysis; assay type: functional, cell-based
[13] = Toxicity in Kunming mouse assessed as change in heart lesions at 240 to 469 mg/kg, ip administered for 14 days by H and E staining based analysis; assay type: organism-based; settings: in vivo, 336 h, dose 240-469 mg/kg, time 14 day
[14] = Toxicity in Kunming mouse assessed as change in kidney lesions at 240 to 469 mg/kg, ip administered for 14 days by H and E staining based analysis; assay type: organism-based; settings: in vivo, 336 h, dose 240-469 mg/kg, time 14 day
[15] = Toxicity in female Balb/c mouse implanted with mouse 4T1 cells assessed as behavioural changes at 25 to 35 mg/kg, ip administered once every 2 days; assay type: organism-based; settings: in vivo, 48 h, dose 25-35 mg/kg, time 2 day
[16] = Toxicity in Kunming mouse assessed as appearance of mononuclear macrophages in alveolar lumen at 240 to 469 mg/kg, ip administered for 14 days by H and E staining based analysis; assay type: organism-based; settings: in vivo, 336 h, dose 240-469 mg/kg, time 14 day
[17] = Hepatotoxicity in Kunming mouse assessed as change in AST level administered intraperitoneally for 14 days (reference value: 153.25 +/- 15.26 U); assay type: toxicity; settings: in vivo, ip, 336 h, time 14 day
[18] = Nephrotoxicity in Kunming mouse assessed as change in BUN level administered intraperitoneally for 14 days (reference value: 8.65 +/- 2.66 U); assay type: toxicity; settings: in vivo, ip, 336 h, time 14 day
[19] = Nephrotoxicity in Kunming mouse assessed as change in CREA level administered intraperitoneally for 14 days (reference value: 16 +/- 2.45 U); assay type: toxicity; settings: in vivo, ip, 336 h, time 14 day
[20] = Cardiotoxicity in Kunming mouse assessed as change in LDH level administered intraperitoneally for 14 days (reference value: 1253 +/- 67.28 U); assay type: toxicity; settings: in vivo, ip, 336 h, time 14 day
[21] = Toxicity in female Balb/c mouse implanted with mouse 4T1 cells assessed as change in body weight at 25 to 35 mg/kg, ip administered once every 2 days; assay type: organism-based; settings: in vivo, 48 h, dose 25-35 mg/kg, time 2 day
[22] = Toxicity in female Balb/c mouse implanted with mouse 4T1 cells assessed as abnormalities in lungs at 35 mg/kg, ip administered once every 2 days for 14 days; assay type: organism-based; settings: in vivo, 336 h, time 14 day
[23] = tested on: 4T1; assay: Antitumor activity against mouse 4T1 cells implanted in Balb/c mouse assessed as reduction in tumor size at 80 mg/kg, IT administered once every 4 days in presence of olive oil; assay type: functional, organism-based
[24] = tested on: 4T1; assay: Antitumor activity against mouse 4T1 cells implanted in Balb/c mouse assessed as reduction in tumor weight at 80 mg/kg, IT administered once every 4 days in presence of olive oil; assay type: functional, organism-based
[25] = tested on: 4T1; assay: Antitumor activity against mouse 4T1 cells implanted in Balb/c mouse assessed as tumor inhibition rate at 80 mg/kg, IT administered once every 4 days in presence of olive oil relative to control; assay type: functional; design: scale not given: the % may be the effect or the level left
[26] = Toxicity in female Balb/c mouse implanted with mouse 4T1 cells assessed as change in body weight at 200 mg/kg, TOP administration once every 2 days for 14 days; assay type: organism-based; settings: in vivo, topical_or_ocular, 336 h, time 14 day
[27] = tested on: 4T1; assay: Antitumor activity against mouse 4T1 cells implanted in Balb/c mouse assessed as smaller tumor at 200 mg/kg, TOP administration once every 2 days for 14 days; assay type: functional, organism-based; settings: time 14.0 day
[28] = tested on: 4T1; assay: Antitumor activity against mouse 4T1 cells implanted in Balb/c mouse assessed as appearance of larger intercellular gaps at 80 mg/kg, IT administered once every 4 days for 14 days in presence of olive oil by TEM analysis; assay type: functional, organism-based; settings: time 14.0 day
[29] = tested on: 4T1; assay: Antitumor activity against mouse 4T1 cells implanted in Balb/c mouse assessed as appearance of chromatin aggregation at 80 mg/kg, IT administered once every 4 days for 14 days in presence of olive oil by TEM analysis; assay type: functional, organism-based; settings: time 14.0 day
[30] = tested on: 4T1; assay: Antitumor activity against mouse 4T1 cells implanted in Balb/c mouse assessed as appearance of nuclear membrane disruption at 80 mg/kg, IT administered once every 4 days for 14 days in presence of olive oil by TEM analysis; assay type: functional, organism-based; settings: time 14.0 day
[31] = tested on: 4T1; assay: Antitumor activity against mouse 4T1 cells implanted in Balb/c mouse assessed as appearance of vacuolation at 25 to 35 mg/kg, ip administered once every 2 days for 14 days by TEM analysis; assay type: functional, organism-based; settings: dose 25-35 mg/kg, time 14.0 day
[32] = tested on: 4T1; assay: Antitumor activity against mouse 4T1 cells implanted in Balb/c mouse assessed as damage in endoplasmic reticulum at 200 mg/kg, TOP administration once every 2 days for 14 days; assay type: functional, organism-based; settings: time 14.0 day
[33] = biological target: Phosphatidylinositol 4,5-bisphosphate 3-kinase catalytic subunit alpha (Homo sapiens) (UniProt P42336); assay: Binding affinity to P13Kalpha in human MDA-MB-231 cells assessed as thermal stabilization at 6.4 uM incubated for 2 hrs by CETSA based Western blotting analysis
Sequence of Phosphatidylinositol 4,5-bisphosphate 3-kinase catalytic subunit alpha (Homo sapiens) (P42336 whole entry, looked up): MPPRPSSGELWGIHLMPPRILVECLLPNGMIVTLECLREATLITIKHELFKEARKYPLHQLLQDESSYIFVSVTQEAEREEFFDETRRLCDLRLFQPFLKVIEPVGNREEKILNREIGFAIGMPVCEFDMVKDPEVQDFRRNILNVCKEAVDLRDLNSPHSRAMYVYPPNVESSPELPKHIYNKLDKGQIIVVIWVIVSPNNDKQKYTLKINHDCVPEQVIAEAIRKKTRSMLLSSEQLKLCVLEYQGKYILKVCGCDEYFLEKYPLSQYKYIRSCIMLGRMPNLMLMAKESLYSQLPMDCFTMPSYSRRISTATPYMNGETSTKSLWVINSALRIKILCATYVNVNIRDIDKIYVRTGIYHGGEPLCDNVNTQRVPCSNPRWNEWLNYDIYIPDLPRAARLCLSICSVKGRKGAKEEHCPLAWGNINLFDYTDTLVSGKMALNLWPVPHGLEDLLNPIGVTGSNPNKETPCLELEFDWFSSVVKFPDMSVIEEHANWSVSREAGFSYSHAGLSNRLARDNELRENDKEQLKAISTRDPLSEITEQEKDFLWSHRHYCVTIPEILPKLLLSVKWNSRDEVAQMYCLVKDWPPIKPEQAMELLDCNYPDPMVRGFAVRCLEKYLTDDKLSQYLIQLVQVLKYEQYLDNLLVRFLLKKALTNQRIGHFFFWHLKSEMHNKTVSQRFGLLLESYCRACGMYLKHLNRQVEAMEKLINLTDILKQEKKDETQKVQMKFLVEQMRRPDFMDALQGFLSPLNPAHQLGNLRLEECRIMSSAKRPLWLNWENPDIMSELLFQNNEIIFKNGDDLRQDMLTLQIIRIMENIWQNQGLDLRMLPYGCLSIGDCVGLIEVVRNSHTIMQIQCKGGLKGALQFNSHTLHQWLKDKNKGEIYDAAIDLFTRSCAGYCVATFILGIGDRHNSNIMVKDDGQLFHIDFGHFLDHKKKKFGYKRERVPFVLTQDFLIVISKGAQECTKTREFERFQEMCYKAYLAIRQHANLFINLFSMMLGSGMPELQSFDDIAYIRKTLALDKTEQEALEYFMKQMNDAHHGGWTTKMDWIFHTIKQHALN

## Cc1[nH]c2ccccc2c1C1=C(F)C(=O)C(F)=C(N2CCOCC2)C1=O
[1]
  Activity: Non-toxic
[2]
  Activity: Active
[3]
  IC50: 3.2 µM
[4]
  IC50: 3.94 µM
[5]
  solubility: 0.028 mg/mL (≈ 78.1 µM)
[6]
  Activity: 26.4%
[7]
  Activity: 3.93%
[8]
  Activity: Active
[9]
  Activity: 32.15%
[10]
  Activity: 63.64%
[11]
  Activity: Toxic
[12]
  Activity: Active; Compound Showed More Effect Than Mitoxantrone Treated Group
[13]
  Activity: Non-toxic
[14]
  Activity: Non-toxic
[15]
  Activity: Non-toxic
[16]
  Activity: Toxic
[17]
  Activity: 106 U/L
[18]
  Activity: 6.26 U
[19]
  Activity: 12.25 U
[20]
  Activity: 1060 U/L
[21]
  Activity: Non-toxic
[22]
  Activity: Non-toxic
[23]
  Activity: Active
[24]
  Activity: Active
[25]
  Activity: 41.9%
[26]
  Activity: Non-toxic
[27]
  Activity: Active
[28]
  Activity: Active
[29]
  Activity: Active
[30]
  Activity: Active
[31]
  Activity: Active
[32]
  Activity: Active
[33]
  Activity: Active
